Consider 15 compounds from patent US20250215030A1, “STAT MODULATORS AND USES THEREOF” (Recludix Pharma, Inc., priority 2022, published 2025).

For experiment [1], the target named is T1, Recombinant STAT6 protein (STAT6(W123-T658)) (Homo sapiens, UniProt P42226).
T1 construct: STAT6(W123-T658)
T1 sequence (P42226 123-658): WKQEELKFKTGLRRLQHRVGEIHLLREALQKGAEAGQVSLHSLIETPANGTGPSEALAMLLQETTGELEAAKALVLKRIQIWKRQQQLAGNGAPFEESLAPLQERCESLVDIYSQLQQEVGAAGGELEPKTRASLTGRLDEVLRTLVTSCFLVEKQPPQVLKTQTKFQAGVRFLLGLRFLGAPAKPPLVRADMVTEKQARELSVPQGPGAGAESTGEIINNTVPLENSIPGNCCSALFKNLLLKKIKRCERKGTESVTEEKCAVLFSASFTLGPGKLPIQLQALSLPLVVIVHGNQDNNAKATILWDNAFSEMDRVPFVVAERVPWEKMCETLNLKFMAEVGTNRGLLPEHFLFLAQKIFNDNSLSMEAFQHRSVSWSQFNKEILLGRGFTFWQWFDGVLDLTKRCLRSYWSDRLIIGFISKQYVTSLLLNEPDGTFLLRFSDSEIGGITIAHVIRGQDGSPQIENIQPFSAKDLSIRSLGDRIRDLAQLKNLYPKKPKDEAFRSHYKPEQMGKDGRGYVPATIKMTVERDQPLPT
In words: STAT6 Fluorescence Polarization (FP) Assay. In kind it is binding. The settings on record: STAT6(W123-T658) 250 nM, probe 5-FAM-ApYKPFQDLI-NH2 2 nM, 45-minute incubation. The method, boiled down:
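STAT6 (W123-T658) at 250 nM mixed with 2 nM 5-FAM-ApYKPFQDLI-NH2 probe in HEPES pH 7.4 buffer with DTT and Tween 20, 1% DMSO final. Polarization read after 45 min at room temperature; IC50 by nonlinear regression of mP versus log concentration, reported in bins A–D.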
In general terms: Polarisation of emitted light reports the rotation of a fluorescent probe.

Experiment [2] concerns the target T2, Recombinant STAT3 protein (STAT3(G127-I722)) (Homo sapiens, UniProt P40763).
T2 construct: STAT3(G127-I722)
In words: STAT3 Fluorescence Polarization (FP) Assay. The class given is binding. The settings on record: STAT3(G127-I722) 25 nM, probe 5-FAM-GpYLPQTV-NH2 2 nM, 45-minute incubation. In outline:
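STAT3(G127-I722) at 25 nM and 5-FAM-GpYLPQTV-NH2 probe at 2 nM in HEPES pH 7.4 buffer with NaCl, EDTA, Tween 20, DTT; 1% DMSO. FP read after 45 min at room temperature; IC50 by nonlinear regression of mP vs log concentration, binned A ≤100 nM to D >10 μM.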

As a reminder, the IC50 is the midpoint of a concentration-inhibition curve.

T2 sequence (P40763 127-722, species assumed): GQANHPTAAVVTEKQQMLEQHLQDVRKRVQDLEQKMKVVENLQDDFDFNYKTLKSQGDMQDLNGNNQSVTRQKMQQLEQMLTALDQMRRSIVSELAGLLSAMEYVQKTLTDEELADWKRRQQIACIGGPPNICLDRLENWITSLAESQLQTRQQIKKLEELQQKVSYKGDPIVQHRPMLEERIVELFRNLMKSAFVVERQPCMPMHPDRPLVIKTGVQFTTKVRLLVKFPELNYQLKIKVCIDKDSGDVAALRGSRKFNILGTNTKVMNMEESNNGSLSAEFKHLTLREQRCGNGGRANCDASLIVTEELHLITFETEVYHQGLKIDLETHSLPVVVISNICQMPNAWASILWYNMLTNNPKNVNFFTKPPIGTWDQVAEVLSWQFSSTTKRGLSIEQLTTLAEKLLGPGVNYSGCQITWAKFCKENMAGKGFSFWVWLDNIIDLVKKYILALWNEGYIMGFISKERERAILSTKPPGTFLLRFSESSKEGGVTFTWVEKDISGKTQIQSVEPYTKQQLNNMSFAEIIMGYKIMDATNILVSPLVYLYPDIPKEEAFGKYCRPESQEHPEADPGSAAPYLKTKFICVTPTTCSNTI

As for `Cn1cc(CC2CN(C(=O)[C@@H]3CC[C@@H]4C[C@H]5C[C@H]5C[C@H](NC(=O)c5cc6cc(CP(=O)(O)O)ccc6s5)C(=O)N43)C2)cn1` [Example 379, ((2-(((3S,6S,7aS,8aR,9aR)-3-(3-((1-methyl-1H-pyrazol-4-yl)methyl)azetidine-1-carbonyl)-5-oxodecahydro-1H-cyclopropa[d]pyrrolo[1,2-a]azocin-6-yl)carbamoyl)benzo[b]thiophen-5-yl)methyl)phosphonic acid], the IC50 is 3 to 30 µM in experiment [1] and 1 to 10 µM in experiment [2].
The like results for `O=C(N[C@H]1C[C@@H]2C[C@@H]2C[C@H]2CC[C@@H](C(=O)N3CC(Cc4cccnc4)C3)N2C1=O)c1cc2cc(CP(=O)(O)O)ccc2s1` [Example 380, ((2-(((3S,6S,7aS,8aR,9aR)-5-oxo-3-(3-(pyridin-3-ylmethyl)azetidine-1-carbonyl)decahydro-1H-cyclopropa[d]pyrrolo[1,2-a]azocin-6-yl)carbamoyl)benzo[b]thiophen-5-yl)methyl)phosphonic acid] were, in that order, 3 to 30 µM and 0.1 to 1 µM.
The like results for `Cc1ccc2c(c1)OCCN2C(=O)[C@@H]1CC[C@@H]2C[C@H]3C[C@H]3C[C@H](NC(=O)c3cc4cc(C(F)P(=O)(O)O)ccc4s3)C(=O)N21` (stereo partly drawn) [Example 383, (fluoro(2-(((3S,6S,7aS,8aR,9aR)-3-(7-methyl-3,4-dihydro-2H-benzo[b][1,4]oxazine-4-carbonyl)-5-oxodecahydro-1H-cyclopropa[d]pyrrolo[1,2-a]azocin-6-yl)carbamoyl)benzo[b]thiophen-5-yl)methyl)phosphonic acid] were, in that order, 0.3 to 3 µM and 1 to 10 µM.
With `O=C(N[C@H]1C[C@@H]2C[C@@H]2C[C@H]2CC[C@@H](C(=O)N3CCOc4cc(F)ccc43)N2C1=O)c1cc2cc(C(F)P(=O)(O)O)ccc2s1` (stereo partly drawn) [Example 384, (fluoro(2-(((3S,6S,7aS,8aR,9aR)-3-(7-fluoro-3,4-dihydro-2H-benzo[b][1,4]oxazine-4-carbonyl)-5-oxodecahydro-1H-cyclopropa[d]pyrrolo[1,2-a]azocin-6-yl)carbamoyl)benzo[b]thiophen-5-yl)methyl)phosphonic acid], the IC50 lay within 3 to 30 µM in experiment [1] and 1 to 10 µM in experiment [2].
As for `O=C(N[C@H]1C[C@@H]2C[C@@H]2C[C@H]2CC[C@@H](C(=O)N3CCOc4cccnc43)N2C1=O)c1cc2cc(C(F)P(=O)(O)O)ccc2s1` (stereo partly drawn) [Example 385, ((2-(((3S,6S,7aS,8aR,9aR)-3-(3,4-dihydro-2H-pyrido[3,2-b][1,4]oxazine-4-carbonyl)-5-oxodecahydro-1H-cyclopropa[d]pyrrolo[1,2-a]azocin-6-yl)carbamoyl)benzo[b]thiophen-5-yl)fluoromethyl)phosphonic acid], the IC50 in experiment [1] lay within 3 to 30 µM; in experiment [2] it was 1 to 10 µM.
Take `O=C(N[C@H]1C[C@@H]2C[C@@H]2C[C@H]2CC[C@@H](C(=O)N3CCOc4ncccc43)N2C1=O)c1cc2cc(C(F)P(=O)(O)O)ccc2s1` (stereo partly drawn) [Example 386, ((2-(((3S,6S,7aS,8aR,9aR)-3-(2,3-dihydro-1H-pyrido[2,3-b][1,4]oxazine-1-carbonyl)-5-oxodecahydro-1H-cyclopropa[d]pyrrolo[1,2-a]azocin-6-yl)carbamoyl)benzo[b]thiophen-5-yl)fluoromethyl)phosphonic acid]: the IC50 in experiment [1] is 0.3 to 3 µM; in experiment [2], 1 to 10 µM.
The like results for `O=C(N[C@H]1C[C@@H]2C[C@@H]2C[C@H]2CC[C@@H](C(=O)N3CCN(C4COC4)c4ccccc43)N2C1=O)c1cc2cc(C(F)P(=O)(O)O)ccc2s1` (stereo partly drawn) [Example 387, (fluoro(2-(((3S,6S,7aS,8aR,9aR)-3-(4-(oxetan-3-yl)-1,2,3,4-tetrahydroquinoxaline-1-carbonyl)-5-oxodecahydro-1H-cyclopropa[d]pyrrolo[1,2-a]azocin-6-yl)carbamoyl)benzo[b]thiophen-5-yl)methyl)phosphonic acid] were, in that order, 3 to 30 µM and 1 to 10 µM.
For `O=C(N[C@H]1C[C@@H]2C[C@@H]2C[C@H]2CC[C@@H](C(=O)N3CCC34CCCCC4)N2C1=O)c1cc2cc(C(F)P(=O)(O)O)ccc2s1` (stereo partly drawn) [Example 388, (fluoro(2-(((3S,6S,7aS,8aR,9aR)-5-oxo-3-(1-azaspiro[3.5]nonane-1-carbonyl)decahydro-1H-cyclopropa[d]pyrrolo[1,2-a]azocin-6-yl)carbamoyl)benzo[b]thiophen-5-yl)methyl)phosphonic acid], the values for the IC50 in experiment [1] and in experiment [2] were 3 to 30 µM and 1 to 10 µM, respectively.
The like results for `O=C(N[C@H]1C[C@@H]2C[C@@H]2C[C@H]2CC[C@@H](C(=O)N3CCC34CCCC4)N2C1=O)c1cc2cc(C(F)P(=O)(O)O)ccc2s1` (stereo partly drawn) [Example 389, (fluoro(2-(((3S,6S,7aS,8aR,9aR)-5-oxo-3-(1-azaspiro[3.4]octane-1-carbonyl)decahydro-1H-cyclopropa[d]pyrrolo[1,2-a]azocin-6-yl)carbamoyl)benzo[b]thiophen-5-yl)methyl)phosphonic acid] were, in that order, 3 to 30 µM and 1 to 10 µM.
The like results for `O=C(N[C@H]1C[C@@H]2C[C@@H]2C[C@H]2CC[C@@H](C(=O)N3CC(c4ccccc4)C3)N2C1=O)c1cc2cc(C(F)P(=O)(O)O)ccc2s1` (stereo partly drawn) [Example 390, (fluoro(2-(((3S,6S,7aS,8aR,9aR)-5-oxo-3-(3-phenylazetidine-1-carbonyl)decahydro-1H-cyclopropa[d]pyrrolo[1,2-a]azocin-6-yl)carbamoyl)benzo[b]thiophen-5-yl)methyl)phosphonic acid] were, in that order, 3 to 30 µM and 0.1 to 1 µM.
The like results for `CN(C)c1ccncc1C1CN(C(=O)[C@@H]2CC[C@@H]3C[C@@H]4C[C@@H]4C[C@H](NC(=O)c4cc5cc(CP(=O)(O)O)ccc5s4)C(=O)N32)C1` [Example 393, ((2-(((3S,6S,7aR,8aS,9aR)-3-(3-(4-(dimethylamino)pyridin-3-yl)azetidine-1-carbonyl)-5-oxodecahydro-1H-cyclopropa[d]pyrrolo[1,2-a]azocin-6-yl)carbamoyl)benzo[b]thiophen-5-yl)methyl)phosphonic acid] were, in that order, above 30 µM and below 0.1 µM.
As for `O=C(N[C@H]1C[C@@H]2C[C@@H]2C[C@H]2CC[C@@H](C(=O)N3CC(c4nocc4Br)C3)N2C1=O)c1cc2cc(C(F)P(=O)(O)O)ccc2s1` (stereo partly drawn) [Example 400, ((2-(((3S,6S,7aS,8aR,9aR)-3-(3-(4-bromoisoxazol-3-yl)azetidine-1-carbonyl)-5-oxodecahydro-1H-cyclopropa[d]pyrrolo[1,2-a]azocin-6-yl)carbamoyl)benzo[b]thiophen-5-yl)fluoromethyl)phosphonic acid], the results for the concentration for half-maximal inhibition (IC50) in experiment [1] and in experiment [2] were 3 to 30 µM and 0.1 to 1 µM, respectively.
The like results for `CN(C)c1ccncc1C1CN(C(=O)[C@@H]2CC[C@@H]3C[C@H]4C[C@H]4C[C@H](NC(=O)c4cc5cc(C(F)(F)P(=O)(O)O)ccc5s4)C(=O)N32)C1` [Example 419, ((2-(((3S,6S,7aS,8aR,9aR)-3-(3-(4-(dimethylamino)pyridin-3-yl)azetidine-1-carbonyl)-5-oxodecahydro-1H-cyclopropa[d]pyrrolo[1,2-a]azocin-6-yl)carbamoyl)benzo[b]thiophen-5-yl)difluoromethyl)phosphonic acid] were, in that order, 0.3 to 3 µM and below 0.1 µM.
The like results for `CCOc1ccncc1C1CN(C(=O)[C@@H]2CC[C@@H]3C[C@H]4C[C@H]4C[C@H](NC(=O)c4cc5cc([C@@H](F)P(=O)(O)O)ccc5s4)C(=O)N32)C1` [Example 420, ((S)-(2-(((3S,6S,7aS,8aR,9aR)-3-(3-(4-ethoxypyridin-3-yl)azetidine-1-carbonyl)-5-oxodecahydro-1H-cyclopropa[d]pyrrolo[1,2-a]azocin-6-yl)carbamoyl)benzo[b]thiophen-5-yl)fluoromethyl)phosphonic acid] were, in that order, 3 to 30 µM and below 0.1 µM.
The like results for `O=C(N[C@H]1C[C@@H]2C[C@@H]2C[C@H]2CC[C@@H](C(=O)N3CC(c4cnccc4N4CCC4)C3)N2C1=O)c1cc2cc([C@@H](F)P(=O)(O)O)ccc2s1` [Example 421, ((S)-(2-(((3S,6S,7aS,8aR,9aR)-3-(3-(4-(azetidin-1-yl)pyridin-3-yl)azetidine-1-carbonyl)-5-oxodecahydro-1H-cyclopropa[d]pyrrolo[1,2-a]azocin-6-yl)carbamoyl)benzo[b]thiophen-5-yl)fluoromethyl)phosphonic acid] were, in that order, 3 to 30 µM and below 0.1 µM.
